≈ marks a conversion by molar mass, not a printed value.
Columns and labels:
Enterococcus faecium [1] = assay: Antimicrobial activity against Enterococcus faecium isolate 5 from patient blood by Etest; assay type: functional
Enterococcus faecium [2] = assay: Antimicrobial activity against Enterococcus faecium isolate 8 from right abdominal wound of patient by Etest
Enterococcus faecium [3] = assay: Antimicrobial activity against Enterococcus faecium isolate 7 from abdominal wound of patient by Etest
Enterococcus faecium [4] = assay: Antimicrobial activity against Enterococcus faecium isolate 1 from right groin wound of patient by Etest; assay type: functional
Enterococcus faecium [5] = assay: Antimicrobial activity against Enterococcus faecium isolate 3 from abdominal wound of patient by Etest; assay type: functional
Enterococcus faecium [6] = assay: Antimicrobial activity against Enterococcus faecium isolate 2 from skin lesion of patient by Etest; assay type: functional
Enterococcus faecium [7] = assay: Antimicrobial activity against Enterococcus faecium isolate 4 from lower extremity wound of patient by Etest; assay type: functional
Enterococcus faecium [8] = assay: Antimicrobial activity against Enterococcus faecium isolate 6 from thigh wound of patient by Etest; assay type: functional; conditions: isolate 6, Thigh muscle
Enterococcus faecium [9] = assay: Antimicrobial activity against Enterococcus faecium ATCC 35667 by Etest; assay type: functional
Staphylococcus aureus = assay: microbe, parasite or virus in culture; conditions: ATCC 29213
Description: Antimicrobial activity against Staphylococcus aureus ATCC 29213 by Etest

Compound | MIC (Enterococcus faecium [1]) [µg/mL] | MIC (Enterococcus faecium [2]) [µg/mL] | MIC (Enterococcus faecium [3]) [µg/mL] | MIC (Enterococcus faecium [4]) [µg/mL] | MIC (Enterococcus faecium [5]) [µg/mL] | MIC (Enterococcus faecium [6]) [µg/mL] | MIC (Enterococcus faecium [7]) [µg/mL] | MIC (Enterococcus faecium [8]) [µg/mL] | MIC (Enterococcus faecium [9]) [µg/mL] | MIC (Staphylococcus aureus) [µg/mL]
CN[C@H](CC(C)C)C(=O)N[C@H]1C(=O)N[C@@H](CC(N)=O)C(=O)N[C@H]2C(=O)N[C@H]3C(=O)N[C@H](C(=O)N[C@H](C(=O)O)c4cc(O)cc(O)c4-c4cc3ccc4O)[C@H](O)c3ccc(c(Cl)c3)Oc3cc2cc(c3O[C@@H]2O[C@H](CO)[C@@H](O)[C@H](O)[C@H]2O[C@H]2C[C@](C)(N)[C@H](O)[C@H](C)O2)Oc2ccc(cc2Cl)[C@H]1O [VANCOMYCIN] | > 16 | > 16 | > 16 | < 2 | < 2 | < 2 | > 16 | > 16 | – | –
CCCCCCCCCC(=O)N[C@@H](Cc1c[nH]c2ccccc12)C(=O)N[C@H](CC(N)=O)C(=O)N[C@@H](CC(=O)O)C(=O)N[C@@H]1C(=O)NCC(=O)N[C@@H](CCCN)C(=O)N[C@@H](CC(=O)O)C(=O)N[C@H](C)C(=O)N[C@@H](CC(=O)O)C(=O)NCC(=O)N[C@H](CO)C(=O)N[C@@H]([C@H](C)CC(=O)O)C(=O)N[C@@H](CC(=O)c2ccccc2N)C(=O)O[C@@H]1C | 8 (≈ 4.94 µM) | 16 (≈ 9.87 µM) | > 16 | 4 (≈ 2.47 µM) | 16 (≈ 9.87 µM) | 4 (≈ 2.47 µM) | 16 (≈ 9.87 µM) | 16 (≈ 9.87 µM) | 1 (≈ 0.617 µM) | 0.25 (≈ 0.154 µM)

Reference: ChEMBL document CHEMBL1255266, “Mechanisms of resistance to daptomycin in Enterococcus faecium” (2008)
